How the values were obtained:
[1] = system: human foreskin fibroblast (HFF) cell monolayers; assay: Toxicity effects controls: sham-inoculated compound-treated HFF monolayers; type: cell-based; further: key: +: toxic; -: no toxicity; ±: mild toxicity; T: toxicity effects interfered with CPE rating
Source text: (§1) With sufficient stirring, all the compounds completely dissolved.
In the tables, the symbols have the meaning indicated: […]

HSV-1 McKrae Strain [2] = assay: Direct virucidal efficacy against HSV-1 on HFF monolayers; type: cell-based
HSV-1 McKrae Strain [3] = assay: Intracellular antiviral activity against HSV-1 in HFF monolayers; type: cell-based; conditions: Experiment 7 (Table 18), 24 h PI
Method: HSV-1 McKrae Strain was diluted to a final concentration of 10^5 PFU/ml in minimal essential medium (MEM). Hereinafter, this dilution is referred to as the HSV-1 Suspension for convenience.
as §1
HFF cell monolayers were inoculated with the HSV-Suspension prepared as above by absorption for thirty minutes at 37° C. After absorption of the virus, the inoculum was aspirated from the cell monolayers and the HSV-1 infected monolayers were rehydrated with medium containing the appropriate concentration of the solution of the compound by adding 500 microliters of each compound concentration to triplicate HSV-1 infected monolayers. All monolayers were incubated at 37° C. The developing HSV-1 cytopathology was monitored daily for two days by inverted light microscopy and titers were calculated by multiple […] analysis. For the intracellular anti-viral activity, "cell monolayer controls" were obtained using sham inoculated non-treated HFF cell monolayers along with the drug treated monolayers. "Positive controls" were obtained by using HSV-1 inoculated non-CTC compound treated HFF monolayers.

RE strain HSV-1 = assay: HSV-1 recovery from tear film, cornea and trigeminal ganglia of treated rabbits; type: in vivo, NZW rabbit
Source text: The specified number of NZW rabbits (1.5-2.0 kg) were used. Animals were received at least two days prior to inoculation to allow them to accommodate to the conditions in the vivarium facility. This conditioning of the animals prior to inoculation minimizes animal variability. After the accommodation, the animals received a slit-lamp examination to exclude any animals with pre-existing anterior segment ocular defects. Animals were bi-laterally inoculated by intrastromal injection of 10^5 PFU RE strain HSV-1. The animals were then replaced individually into cages.
[…] This was carried out by obtaining tear film by swabbing the lower and upper conjunctival sacs and retaining the swab in the nasal fornix for 10 seconds. The swabs were eluted individually in HBSS. 50 μl aliquots of the virus-HBSS eluate were absorbed under confluent HFF cell monolayers for 5 minutes. The monolayers were hydrated with MEM, incubated at 37° C. and observed daily for 1 to 2 weeks to detect developing cytopathology consistent with HSV infection (HSV CPE).
(§2) On day 10 PI, the animals were sacrificed, the corneal epithelium was scraped from the eyes and epithelial and corneal stromal cultures were preformed on HFF cell monolayers. The separation of epithelial virus from deeper stromal virus infection allows for analysis of HSV in these distinct corneal layers. Corneal epithelial and stromal co-cultures were evaluated daily by inverted light microscopy.
At sacrifice, trigeminal ganglia were removed, washed in HBSS, minced and floated over duplicate HFF cell monolayers. The cell co-cultures were monitored by inverted light microscopy for 2 weeks. Negative cultures were blind passaged twice at 7 day intervals. Detection of HSV CPE in the whole-cell co-cultures was scored either positive or negative. HSV recovery from inventive compound-treated, TFT-treated and placebo-treated trigeminal ganglia was compared and differences in recovery rates analyzed.
as §2, with “7” for “10”, “performed” for “preformed”

HFF cells = assay: MTT assay for cell cytotoxicity; type: cell-based, human; conditions: stationary cells
Method: Twenty-four hours prior to assay, HFF cells are plated into 96 well plates at a concentration of […] cells per well. After 24 h, the media is aspirated and […] of drug is added to the first row of wells and then diluted serially 1:5 using the automated Cetus Liquid Handling System in a manner similar to that used in the CPE assay. The plates are then incubated in a CO2 incubator at 37° C. for seven days. At this time, each well receives 50 microliters of […] solution of MTT in Dulbecco's Phosphate Buffered Saline. The plates are then incubated for an additional four hours. At this time, the media is removed and replaced with 100 μl of 0.04N hydrochloric acid in isopropanol. After shaking briefly, the plates are then read on a plate reader at 550 nm.

## CC1=CC(C)=[N+]2CC[N+]3=C(C)C=C(C)[O][Co-3]23([NH3+])([NH3+])[O]1.[Cl-] [Compound 23, reference compound]
[1]; Experiment 1 (Table 1), 24 h PI, 0.001 mg/ml
  toxicity effects: -
[1]; Experiment 1 (Table 1), 24 h PI, 0.01 mg/ml
  toxicity effects: -
[1]; Experiment 1 (Table 1), 24 h PI, 0.1 mg/ml
  toxicity effects: -
[1]; Experiment 1 (Table 1), 24 h PI, 1 mg/ml
  toxicity effects: -
[1]; Experiment 1 (Table 1), 48 h PI, 0.001 mg/ml
  toxicity effects: -
[1]; Experiment 1 (Table 1), 48 h PI, 0.01 mg/ml
  toxicity effects: -
[1]; Experiment 1 (Table 1), 48 h PI, 0.1 mg/ml
  toxicity effects: -
[1]; Experiment 1 (Table 1), 48 h PI, 10 mg/ml
  toxicity effects: +
[1]; Experiment 3 (Table 7), 24 h PI, 0.001 mg/ml
  toxicity effects: -
[1]; Experiment 3 (Table 7), 24 h PI, 0.01 mg/ml
  toxicity effects: -
[1]; Experiment 3 (Table 7), 24 h PI, 0.1 mg/ml
  toxicity effects: -
[1]; Experiment 3 (Table 7), 48 h PI, 0.001 mg/ml
  toxicity effects: -
[1]; Experiment 3 (Table 7), 48 h PI, 0.01 mg/ml
  toxicity effects: -
[1]; Experiment 3 (Table 7), 48 h PI, 0.1 mg/ml
  toxicity effects: -
[1]; Experiment 6 (Table 15), 48 h, 0.001 mg/ml
  toxicity effects: -
[1]; Experiment 6 (Table 15), 48 h, 0.01 mg/ml
  toxicity effects: -
[1]; Experiment 6 (Table 15), 48 h, 0.1 mg/ml
  toxicity effects: -
[1]; Experiment 6 (Table 15), 48 h, 0.5 mg/ml
  toxicity effects: -
[1]; Experiment 6 (Table 15), 48 h, 1 mg/ml
  toxicity effects: -
HSV-1 McKrae Strain [2]; Experiment 1 (Table 2), 24 h PI, 0.001 mg/ml
  virucidal efficacy (HSV-1 titer): 10^5 PFU/ml
HSV-1 McKrae Strain [2]; Experiment 1 (Table 2), 24 h PI, 0.1 mg/ml
  virucidal efficacy (HSV-1 titer): 10^1 PFU/ml
HSV-1 McKrae Strain [2]; Experiment 1 (Table 2), 24 h PI, 1 mg/ml
  virucidal efficacy (HSV-1 titer): 0 PFU/ml
HSV-1 McKrae Strain [2]; Experiment 1 (Table 2), 24 h PI, 10 mg/ml
  virucidal efficacy (HSV-1 titer): 0 PFU/ml
HSV-1 McKrae Strain [2]; Experiment 1 (Table 2), 24 h PI, .01 mg/ml
  virucidal efficacy (HSV-1 titer): 10^3 PFU/ml
HSV-1 McKrae Strain [2]; Experiment 1 (Table 2), 48 h PI, 0.1 mg/ml
  virucidal efficacy (HSV-1 titer): 10^5 PFU/ml
HSV-1 McKrae Strain [2]; Experiment 1 (Table 2), 48 h PI, 1 mg/ml
  virucidal efficacy (HSV-1 titer): 10^5 PFU/ml
HSV-1 McKrae Strain [2]; Experiment 1 (Table 2), 48 h PI, 10 mg/ml
  virucidal efficacy (HSV-1 titer): O/T
HSV-1 McKrae Strain [2]; Experiment 1 (Table 3), HSV-1
  effective virucidal concentration IC90: 100 mg/L
HSV-1 McKrae Strain [2]; Experiment 2 (Table 5), 24 h PI, 0.001 mg/ml
  virucidal efficacy (HSV-1 titer): 10^3 PFU/ml
HSV-1 McKrae Strain [2]; Experiment 2 (Table 5), 24 h PI, 0.01 mg/ml
  virucidal efficacy (HSV-1 titer): 10^2 PFU/ml
HSV-1 McKrae Strain [2]; Experiment 2 (Table 5), 24 h PI, 0.1 mg/ml
  virucidal efficacy (HSV-1 titer): 10^1 PFU/ml
HSV-1 McKrae Strain [2]; Experiment 2 (Table 5), 24 h PI, 1 mg/ml
  virucidal efficacy (HSV-1 titer): 0 PFU/ml
HSV-1 McKrae Strain [2]; Experiment 2 (Table 5), 24 h PI, 10 mg/ml
  virucidal efficacy (HSV-1 titer): 0 PFU/ml
HSV-1 McKrae Strain [2]; Experiment 2 (Table 5), 48 h PI, 0.1 mg/ml
  virucidal efficacy (HSV-1 titer): 10^5 PFU/ml
HSV-1 McKrae Strain [2]; Experiment 2 (Table 5), 48 h PI, 1 mg/ml
  virucidal efficacy (HSV-1 titer): 0 PFU/ml
HSV-1 McKrae Strain [2]; Experiment 2 (Table 5), 48 h PI, 10 mg/ml
  virucidal efficacy (HSV-1 titer): O/T
HSV-1 McKrae Strain [2]; Experiment 3 (Table 8), 24 h PI, 0.001 mg/ml
  virucidal efficacy (HSV-1 titer): 10^5 PFU/ml
HSV-1 McKrae Strain [2]; Experiment 3 (Table 8), 24 h PI, 0.01 mg/ml
  virucidal efficacy (HSV-1 titer): 10^3 PFU/ml
HSV-1 McKrae Strain [2]; Experiment 3 (Table 8), 24 h PI, 0.1 mg/ml
  virucidal efficacy (HSV-1 titer): 10^1 PFU/ml
HSV-1 McKrae Strain [2]; Experiment 3 (Table 8), 24 h PI, 1 mg/ml
  virucidal efficacy (HSV-1 titer): 0 PFU/ml
HSV-1 McKrae Strain [2]; Experiment 3 (Table 8), 48 h PI, 0.1 mg/ml
  virucidal efficacy (HSV-1 titer): 10^5 PFU/ml
HSV-1 McKrae Strain [2]; Experiment 3 (Table 8), 48 h PI, 1 mg/ml
  virucidal efficacy (HSV-1 titer): 10^5 PFU/ml
HSV-1 McKrae Strain [2]; Experiment 6 (Table 16), 24 h PI, 0.1 mg/ml
  virucidal efficacy (HSV-1 titer): 10^0-1 PFU/ml
HSV-1 McKrae Strain [2]; Experiment 6 (Table 16), 24 h PI, 0.5 mg/ml
  virucidal efficacy (HSV-1 titer): 0 PFU/ml
HSV-1 McKrae Strain [2]; Experiment 6 (Table 16), 24 h PI, 1 mg/ml
  virucidal efficacy (HSV-1 titer): 0 PFU/ml
HSV-1 McKrae Strain [2]; Experiment 6 (Table 16), 24 h PI, 2 mg/ml
  virucidal efficacy (HSV-1 titer): 0 PFU/ml
HSV-1 McKrae Strain [2]; Experiment 6 (Table 16), 24 h PI, 5 mg/ml
  virucidal efficacy (HSV-1 titer): 0 PFU/ml
HSV-1 McKrae Strain [3]; 0.01 mg/ml
  antiviral efficacy (HSV-1 titer): 10^2 PFU/ml
HSV-1 McKrae Strain [3]; 0.5 mg/ml
  antiviral efficacy (HSV-1 titer): 0-10^1 PFU/ml
HSV-1 McKrae Strain [3]; 1 mg/ml
  antiviral efficacy (HSV-1 titer): 0 PFU/ml
HSV-1 McKrae Strain [3]; 2 mg/ml
  antiviral efficacy (HSV-1 titer): 0 PFU/ml
HSV-1 McKrae Strain [3]; 5 mg/ml
  antiviral efficacy (HSV-1 titer): 0 PFU/ml
RE strain HSV-1; Example 3
  HSV-1 recovery from corneal epithelial cultures vs other therapy groups: significantly reduced
RE strain HSV-1; Example 3 (Table 22)
  HSV-1 recovery, corneal epithelium (C.E.): 20%
  HSV-1 recovery, corneal stroma (C.S.): 50%
  HSV-1 recovery, trigeminal ganglia (T.G.): 50%
RE strain HSV-1; Example 3 (Table 22), day 3 PI
  HSV-1 recovery, tear film (positive samples of total): 100%
RE strain HSV-1; Example 3 (Table 22), day 5 PI
  HSV-1 recovery, tear film (positive samples of total): 100%
RE strain HSV-1; Example 3 (Table 22), day 7 PI
  HSV-1 recovery, tear film (positive samples of total): 80%
RE strain HSV-1; Example 3 (Table 22), day 9 PI
  HSV-1 recovery, tear film (positive samples of total): 0%
RE strain HSV-1; Example 4
  recovery of HSV-1 in tear film: reduced the recovery of HSV-1 in tear film
RE strain HSV-1; Example 5 (Table 23)
  HSV-1 recovery, corneal stroma: 80%
RE strain HSV-1; Example 5 (Table 23), column 1
  HSV-1 recovery (positive cultures per total): 0%
RE strain HSV-1; Example 5 (Table 23), column 3
  HSV-1 recovery (positive cultures per total): 100%
RE strain HSV-1; Example 5 (Table 23), column 5
  HSV-1 recovery (positive cultures per total): 90%
RE strain HSV-1; Example 5 (Table 23), column 7
  HSV-1 recovery (positive cultures per total): 80%
HFF cells
  toxicity IC50, MTT toxicity: > 61 MCG/ML

From US5756491A, “Antiviral cobalt-organic compounds” (priority 1991, dated 1998)
